Assay results: ChEMBL document CHEMBL4017472, “New modified 2-aminobenzimidazole nucleosides: Synthesis and evaluation of their activity against herpes simplex virus type 1” (Bioorg Med Chem Lett, 2017)
pIC50: −log10 of the molar value.

Tests used:
[1] = system: Human alphaherpesvirus 1; experiment: Antiviral activity against HSV-1 L2 infected in African green monkey Vero E6 cells assessed as viral reproduction at 207 uM measured after 48 hrs post infection by gentian violet staining based plaque reduction assay (reference value: 6.91 +/- 0.05 log10PFU/ml); format: functional, Vero C1008
[2] = system: Human alphaherpesvirus 1; experiment: Antiviral activity against HSV-1 L2/Rp-ACV/2 infected in African green monkey Vero E6 cells assessed as inhibition of viral reproduction measured after 48 hrs post infection by gentian violet staining based plaque reduction assay; format: functional; conditions: Vero C1008
[3] = Cytotoxicity against African green monkey Vero E6 cells measured after 3 days by trypan blue assay; format: cell-based, Vero C1008; conditions: chlorocebus sabaeus
[4] = system: Human alphaherpesvirus 1; experiment: Antiviral activity against acyclovir and foscarnet-resistant HSV-1 L2 infected in African green monkey Vero E6 cells assessed as viral reproduction at 207 uM measured after 48 hrs post infection by gentian violet staining based plaque reduction assay (reference value: 5.92 +/- 0.11 log10PFU/ml); format: functional, Vero C1008
[5] = system: Human alphaherpesvirus 1; experiment: Antiviral activity against acyclovir-resistant HSV-1 L2 infected in African green monkey Vero E6 cells assessed as reduction in virus-induced cytopathic effect; format: functional; conditions: Human alphaherpesvirus 1, L2, Vero C1008
[6] = system: Human alphaherpesvirus 1; experiment: Antiviral activity against HSV-1 L2/Rp-ACV/2 infected in African green monkey Vero E6 cells assessed as viral reproduction at 104 uM measured after 48 hrs post infection by gentian violet staining based plaque reduction assay (reference value: 6.05 +/- 0.1 log10PFU/ml); format: functional, Vero C1008
[7] = Selectivity index, ratio of MCC for African green monkey Vero E6 cells to IC50 for HSV-1 L2/Rp-ACV/2 infected in African green monkey Vero E6 cells; parameters: species or system Vero C1008
[8] = Selectivity index, ratio of MCC for African green monkey Vero E6 cells to IC50 for HSV-1 F+ infected in African green monkey Vero E6 cells; parameters: species or system Vero C1008
[9] = system: Human alphaherpesvirus 1; experiment: Antiviral activity against acyclovir and foscarnet-resistant HSV-1 L2 infected in African green monkey Vero E6 cells assessed as reduction in virus-induced cytopathic effect; format: functional; conditions: Human alphaherpesvirus 1, L2, Vero C1008
[10] = system: Human alphaherpesvirus 1; experiment: Antiviral activity against acyclovir and foscarnet-resistant HSV-1 L2 infected in African green monkey Vero E6 cells assessed as viral reproduction at 52 uM measured after 48 hrs post infection by gentian violet staining based plaque reduction assay (reference value: 5.92 +/- 0.11 log10PFU/ml); format: functional, Vero C1008
[11] = system: Human alphaherpesvirus 1; experiment: Antiviral activity against acyclovir and foscarnet-resistant HSV-1 L2 infected in African green monkey Vero E6 cells assessed as viral reproduction at 104 uM measured after 48 hrs post infection by gentian violet staining based plaque reduction assay (reference value: 5.92 +/- 0.11 log10PFU/ml); format: functional, Vero C1008
[12] = system: Human alphaherpesvirus 1; experiment: Antiviral activity against HSV-1 L2/Rp-ACV/2 infected in African green monkey Vero E6 cells assessed as viral reproduction at 415 uM measured after 48 hrs post infection by gentian violet staining based plaque reduction assay (reference value: 6.05 +/- 0.1 log10PFU/ml); format: functional, Vero C1008
[13] = system: Human alphaherpesvirus 1; experiment: Antiviral activity against acyclovir and cidofovir-resistant HSV-1 L2 infected in African green monkey Vero E6 cells assessed as viral reproduction at 207 uM measured after 48 hrs post infection by gentian violet staining based plaque reduction assay (reference value: 6.52 +/- 0.11 log10PFU/ml); format: functional, Vero C1008

**Q.** Which Activity [1] does the source give for Nc1nc2cc(F)c(F)cc2n1[C@@H]1O[C@H](CO)[C@@H](O)[C@H]1O here?
**A.** 5.16 log10PFU/ml

**Q.** What about the inhibition [2] of the same compound?
**A.** Dose-dependent effect

**Q.** And the MCC at 72 h [3]?
**A.** > 3.32 mM

**Q.** And the Activity [4]?
**A.** 4.47 log10PFU/ml

**Q.** And the pIC50 [5]?
**A.** 3.98

**Q.** What about the IC95 [5] of the same compound?
**A.** 830 µM

**Q.** What about the Activity [6] of the same compound?
**A.** 4.76 log10PFU/ml

**Q.** What about the “Selectivity Index” value [7] of the same compound?
**A.** >32

**Q.** And the “Selectivity Index” value [8]?
**A.** >16

**Q.** And the pIC50 [9]?
**A.** 3.68

**Q.** And the IC95 [9]?
**A.** 830 µM

**Q.** And the Activity [10]?
**A.** 5.4 log10PFU/ml

**Q.** And the Activity [11]?
**A.** 4.8 log10PFU/ml

**Q.** What about the Activity [12] of the same compound?
**A.** 4.06 log10PFU/ml

**Q.** And the Activity [13]?
**A.** 5.06 log10PFU/ml
